The values that follow come from patent US20190099401A1, “METHOD FOR PROTECTING CORNEAL ENDOTHELIAL CELLS FROM THE IMPACT CAUSED BY AN EYE SURGERY” (priority 2017, published 2019).

The structures appear in SMILES notation. Where “and” joins values, the source holds several entries; their conditions need not be identical. Identical values can stand only once.

The test system of data set [1] is corneal endothelial cell line (B4G12). The data set can be described thus: Cell experiment: paraquat-induced apoptosis, cell morphology. It counts as cell-based. The note with it: for cell morphology (apoptosis, vesicle formation) / cell morphology (protective effect): FIG. 1. The procedure:
(§1) In the present embodiment, retinal pigment epithelial cell line (ARPE19) and corneal endothelial cell line (B4G12) were subjected to the cell experiment. The B4G12 cells were cultured with the cell culture medium comprising Human Endothelial-SFM, 2% of fetal bovine serum (FBS), and 10 ng/ml of basic fibroblast growth factor (bFGF). The culture medium was changed every two days. The ARPE 19 cells were cultured with the cell culture medium comprising Dulbecco's Modified Eagle Medium Nutrient Mixture F-12 (DMEM-F12), 10% of FBS, 0.5% of ampicillin, and 0.125% of gentamycin. The culture medium was changed every two days.
(§2) 2 mM of paraquat was added to the culture medium of the ARPE19 cells, and 0.2 mM of paraquat was added to the culture medium of the B4G12 cells to induce apoptosis of the cells. 0.1, 0.5, 1.0, and 2.0 mM of ascorbic acid were then added respectively to the culture medium of the cells for 5 days and the cell morphologies thereof were shown in FIG. 1. […] Accordingly, the lowest effective concentration of ascorbic acid is 1.0 mM.
(§3) Further, ARPE19 cells and B4G12 cells were divided respectively into four groups, which comprises a control group 1 without added ascorbic acid or paraquat; a control group 2 added with ascorbic acid but without paraquat; a comparative group added with paraquat but without ascorbic acid; and a treatment group added with ascorbic acid and paraquat, wherein 1 mM of ascorbic acid were added to the control groups 2 and treatment groups, 2 mM of paraquat were added to the comparative group and the treatment group of ARPE19 cells, and 0.2 mM of paraquat were added to the comparative group and the treatment group of B4G12 cells.

Data set [2] has as its system retinal pigment epithelial cell line (ARPE19). The data set is described as above. It counts as cell-based. To be noted: for cell morphology (apoptosis, vesicle formation) / cell morphology (protective effect): FIG. 1. How it is done: as §1, §2, §3
The test system of the next data set is B4G12 cells. The data set can be described thus: Oxidative stress test (cellular ROS detection assay kit). It counts as cell-based. The note with it: after 5 days of culturing, FIG. 3. How it is done: (§4) The oxidative stress of ARPE19 and B4G12 cells were tested using cellular ROS detection assay kit (Deep Red Fluorescence, ab186029) after 5 days of culturing. The tested groups were the same as the abovementioned control group 1, control group 2, comparative group, and treatment group. The test results were shown in FIG. 3, wherein the red fluorescent light represented the existence of oxidative stress.

Another data set deals with ARPE19 cells. The description is as above. It counts as cell-based. To be noted: after 5 days of culturing, FIG. 3. The procedure: as §4
The subject of data set [3] is corneal endothelial cells. The data set can be described thus: Phacoemulsification in patients with low corneal endothelial cell density. It counts as in vivo. To be noted: 28 days four times a day before phacoemulsification, one patient eye. The source says: Please refer to the following Table. 1 showing the age and sex of the patients, concentration of ascorbic acid in the ophthalmic composition, cause of low corneal endothelial cell density (ECD), total energy of phacoemulsification, duration time of phacoemulsification, corneal endothelial cell density before and after the phacoemulsification, and the percentage of cell loss. […] The ratio of cell loss after may be down regulated to 6.2±1.9%.

Setting [4] is: control group 2: 1 mM ascorbic acid without paraquat, FIG. 2.
Where [5] appears, read: 1 mM ascorbic acid without paraquat.

Consider `O=C1O[C@H]([C@@H](O)CO)C(O)=C1O` [ascorbic acid], for which the “cell morphology (apoptosis, vesicle formation)” value in data set [1] (0.1 mM ascorbic acid, 0.2 mM paraquat, 5 days) is “showed cell apoptosis and vesicle formation”; in data set [1] (0.5 mM ascorbic acid, 0.2 mM paraquat, 5 days), “showed cell apoptosis and vesicle formation”; in data set [2] (0.1 mM ascorbic acid, 2 mM paraquat, 5 days), “showed cell apoptosis and vesicle formation”; in data set [2] (0.5 mM ascorbic acid, 2 mM paraquat, 5 days), “showed cell apoptosis and vesicle formation”. The lowest effective concentration in data set [1] (0.2 mM paraquat, 5 days) worked out at 1.0 mM; in data set [2] (2 mM paraquat, 5 days), 1.0 mM. The “cell morphology (protective effect)” value in data set [1] (1.0 mM ascorbic acid, 0.2 mM paraquat, 5 days) is “showed the protective effect for the cells”; in data set [1] (2.0 mM ascorbic acid, 0.2 mM paraquat, 5 days) it was “showed the protective effect for the cells”; in data set [2] (1.0 mM ascorbic acid, 2 mM paraquat, 5 days), “showed the protective effect for the cells”; in data set [2] (2.0 mM ascorbic acid, 2 mM paraquat, 5 days), “showed the protective effect for the cells”. Besides, in data set [1] (control group 2: 1 mM ascorbic acid without paraquat (same in control group 1), FIG. 2), the cell vesicles result is “only some cell vesicles were generated”. The cell apoptosis result in data set [1] (setting [4]) and in data set [2] (setting [4]) was “did not show significant cell apoptosis” each time. The “cell apoptosis and cell vesicle generation” value in data set [1] (treatment group: 1 mM ascorbic acid + 0.2 mM paraquat, FIG. 2) was “cell apoptosis and cell vesicle generation were not significant”; in data set [2] (treatment group: 1 mM ascorbic acid + 2 mM paraquat, FIG. 2), “cell apoptosis and cell vesicle generation were not significant”. Also, the “oxidative stress (red fluorescence, ROS)” value in the data set on B4G12 cells (1 mM ascorbic acid + 0.2 mM paraquat) is reported as “sufficiently decrease the oxidative stress caused by paraquat”; with B4G12 cells (setting [5]), “did not increase significantly”; in the data set with ARPE19 cells (1 mM ascorbic acid + 2 mM paraquat), “sufficiently decrease the oxidative stress caused by paraquat”; with ARPE19 cells (setting [5]), “did not increase significantly”. For the same molecule, the Cell lost in data set [3] (20 mg/cc ascorbic acid) is 5.6% and 9.3%; in data set [3] (50 mg/cc ascorbic acid), 3.6% and 5.3% and 8.6% and 8.0% and 7.6% and 6.2% and 5.5% (2×) and 6.9% and 5.1%. Besides, the “Post-op corneal ECD” value was 981 cells/mm^2 and 1239 cells/mm^2 in data set [3] (20 mg/cc ascorbic acid); 1355 cells/mm^2 and 983 cells/mm^2 and 1238 cells/mm^2 and 1119 cells/mm^2 and 1249 cells/mm^2 and 1181 cells/mm^2 and 1724 cells/mm^2 and 1112 cells/mm^2 and 1649 cells/mm^2 and 838 cells/mm^2 in data set [3] (50 mg/cc ascorbic acid).
